Data on 4 compounds can be found in patent US5578725A, “Delta opioid receptor antagonists” (priority 1995, dated 1996).

Where “and” joins values, the source holds several entries; their conditions need not be identical. Equal entries are not always repeated. Structures can show the parent of a compound that is named as a salt. Where two headings read alike, the source gives them in different places.

For data set [1] the following is noted: compared with 2 or 3; cited from earlier work.
Data set [2] deals with δ2. Particulars: Jiang et al.; Korlipara et al.; cited from earlier work.
The target of data set [3] is κ opioid receptor (Cavia porcellus, UniProt P41144). Particulars: GPI, ethylketazocine, antagonist 100 nM.
For data set [4], the target named is T1, κ (Cavia porcellus, UniProt P41144).
T1 construct: Guinea Pig Brain Membranes; from tissue; host or cells: guinea pig brain membranes
Put plainly: Binding to κ sites, competition with [3H]U69593, guinea pig brain membranes. Particulars: geometric mean of three replicates. The method, then:
(§1) The opioid receptor affinities of the target compounds were determined on guinea pig membranes employing a modification of the method of Werling et al., J. Pharmacol. Exp. Ther., 233, 722 (1986).

Data set [5] has as its system δ2. Put plainly: biochemical. The class given is binding, guinea pig. The note with it: DSLET vs DPDPE. The method, then:
as §1

The test system of data set [6] is δ1. In words: biochemical. The class given is binding, guinea pig. The method, then: as §1
Data set [7] concerns the target T2, δ1 (Cavia porcellus, UniProt A0A286XTF2).
T2 construct: Guinea Pig Brain Membranes; from tissue; host or cells: guinea pig brain membranes
Put plainly: biochemical. The class given is binding, guinea pig. The note with it: relative to NTI. The method, then: as §1

In data set [8] the target is T3, δ opioid receptors (Mus musculus, UniProt P32300). In words: Antagonism of DADLE (δ) in electrically stimulated mouse vas deferens (MVD) preparation.
The target in data set [9] is μ opioid receptor (Cavia porcellus, UniProt A0ACM8Q262). The note with it: GPI, morphine, antagonist 100 nM.
The target in data set [10] is T4, δ2 (Mus musculus, UniProt P32300).
T4 construct: male Swiss-Webster mice; from tissue; host or cells: living mouse (male Swiss-Webster)
In words: Tail-flick assay, antagonism of DSLET (δ2) antinociception. In kind it is in vivo, male Swiss-Webster mice. (In general: Thermal pain tests record how soon the animal reacts.)

In data set [11] the target is T5, μ (Mus musculus, UniProt P42866).
T5 construct: male Swiss-Webster mice; from tissue; host or cells: living mouse (male Swiss-Webster)
In words: Tail-flick assay, antagonism of morphine (μ) antinociception. In kind it is in vivo, male Swiss-Webster mice.

For data set [12], the target named is T6, κ (Mus musculus, UniProt P33534).
T6 construct: male Swiss-Webster mice; from tissue; host or cells: living mouse (male Swiss-Webster)
The class given is in vivo, male Swiss-Webster mice.

In data set [13] the target is δ1 (Mus musculus, UniProt P32300). The note with it: for ED50 Ratio (95% C.L.): ED50 with antagonist/control ED50, DPDPE i.c.v.
Data set [14] concerns rats. The note with it: compared to peptidyl delta-opioid receptor antagonists; Ser. No. 07/750,109; cited from earlier work.
Data set [15] deals with μ (Cavia porcellus, UniProt A0ACM8Q262). The note with it: data from Portoghese et al.; cited from earlier work.
The conditions of data set [16]: K. Arakawa et al.; cited from earlier work.
Data set [17] addresses T3, δ opioid receptors. On the set-up: mouse vas deferens (MVD) preparations; from tissue; host or cells: mouse vas deferens, electrically stimulated. Particulars: MVD, DADLE; data from Korlipara et al.; 15 min; read-out: Ke; cited from earlier work.

Turning to `Oc1ccc2c3c1OC1c4c(c5ccccc5n4Cc4ccccc4)CC4(O)C(C2)N(CC2CC2)CCC314` (stereo not shown) [benzylnaltrindole], the “lipophilicity (in words)” value in data set [1] is “considerably more lipophilic than 2 or 3”. Further, in data set [2], the “in vivo δ subtype selectivity (in words)” value is listed as “δ2 -selective antagonists”.

The Ki is a dissociation constant, usually derived from enzyme kinetics or from competition with a known ligand. For the compound `O=C(O)CNC(=O)c1cccc2c3c([nH]c12)[C@@H]1Oc2c(O)ccc4c2[C@@]12CCN(CC1CC1)[C@H](C4)[C@]2(O)C3` [Compound 2, 7'-(Carboxamidoglycine)-17-(cyclopropylmethyl)-6,7-dehydro-3,14-dihydroxy-4,5α-epoxy-6,7,2',3'-indolomorphinan hydrochloride], in data set [3], the “IC50 ratio EK (κ)” value was determined as 1.1 ± 0.2. The Ki in data set [4] worked out at 162 nM. Further, the “factor by which compound competed more effectively with [3H]DSLET than with [3H]DPDPE for δ sites” value in data set [5] is given as 8-10. In addition, the “Ki Selectivity Ratio δ1/δ2” value in data set [6] (Ki δ1 / Ki δ2) came out at 8.2. For the same compound, the “preference between δ1 and δ2 putative binding sites (in words)” value in data set [6] ([3H]DPDPE vs [3H]DSLET) was “greater affinity for δ2 relative to δ1 putative binding sites”. Further, the “affinity for δ1 sites relative to NTI (times greater)” value in data set [7] is reported as 2 times. Moreover, the Kb in [8] (Ke (nM), MVD, DADLE, Ke = [antagonist]/(IC50 ratio - 1), antagonist 100 nM) was 3.2 nM and 1 to 5 nM. Also, in data set [8] (MVD DADLE IC50 ratio / GPI EK IC50 ratio), the “IC50 Selectivity Ratio δ/κ” value was 30. For the same compound, in data set [8] (MVD DADLE IC50 ratio / GPI morphine IC50 ratio), the “IC50 Selectivity Ratio δ/μ” value came out at 21. Besides, in data set [8] (MVD, antagonist 100 nM, 15 min preincubation), the “IC50 ratio DADLE(δ)” value is listed as 32 ± 8. For the same compound, in data set [9], the “IC50 ratio M(μ)” value turned out to be 1.5 ± 0.1. The “ED50 Ratio (95% C.L.)” value is listed as 1.1 (0.8-1.6) in data set [10] (ED50 with antagonist/control ED50, DSLET i.c.v., antagonist 20 pmol/kg i.c.v.); 0.9 (0.8-1.1) in data set [11] (ED50 with antagonist/control ED50, morphine s.c., antagonist 20 pmol/kg i.c.v.); 0.8 (0.7-0.9) in [12] (mouse, in vivo); 5.3 (3.6-7.7) in data set [13] (antagonist 20 pmol/kg i.c.v.); 2.7 (1.9-4.0) in data set [13] (antagonist 0.9 μmol/kg i.v.). The “antagonism of DSLET antinociception (in words)” value in data set [10] (mice) was “No significant antagonism”. For the same compound, the “antagonism of morphine antinociception (in words)” value in data set [11] (mice) was “No significant antagonism”. Besides, in [12] (mice), the “antagonism of U50488 antinociception (in words)” value is reported as “No significant antagonism”. The “antagonist potency, central vs peripheral delivery (in words)” value in data set [13] (central (i.c.v.) vs peripheral (i.v.)) is “highly potent δ opioid antagonists when administered centrally, and many orders of magnitude less potent when delivered by the peripheral route”. In [13] (i.c.v., antagonist dose/(ED50 ratio - 1)), the “Dose required to double the ED50 of DPDPE, i.c.v.” value was 4.7 pmol/kg. The “antagonism of DPDPE antinociception (in words)” value in data set [13] (i.v. or i.c.v., mice) is reported as “effectively antagonized the antinociceptive effect of the δ1 agonist, DPDPE”. The “Dose required to double the ED50 of DPDPE, i.v.” value in [13] (i.v., antagonist dose/(ED50 ratio - 1)) was 0.53 µmol/kg. The “in vivo δ subtype selectivity (in words)” value in data set [13] (mouse, in vivo) was “antagonized the δ1 agonist, DPDPE, but not the δ2 agonist, DSLET”. The “i.v./i.c.v. dose ratio relative to that of NTI (times greater)” value in [13] (relative to NTI) is 15.

As for `Oc1ccc2c3c1O[C@H]1c4oc5ccccc5c4C[C@@]4(O)[C@@H](C2)N(CC2CC2)CC[C@]314` [naltriben (NTB), naltriben], the “lipophilicity (in words)” value in [1] is reported as “considerably more lipophilic than 2 or 3”. Moreover, the “suppression of ethanol drinking (in words)” value in data set [14] was “unexpectedly prolonged suppression of ethanol drinking”. For the same compound, the “in vivo δ subtype selectivity (in words)” value in [2] is recorded as “δ2 -selective antagonists”.

For `Oc1ccc2c3c1O[C@H]1c4[nH]c5ccccc5c4C[C@@]4(O)[C@@H](C2)N(CC2CC2)CC[C@]314` [Compound 1, naltrindole], the inhibition constant Ki in [15] is 3.8 nM. The “immunosuppressive activity (in words)” value in data set [16] is given as “potent immunosuppressive activity”. For the same compound, the Kb in data set [17] was 0.2 nM. The “suppression of ethanol drinking (in words)” value in [14] was “unexpectedly prolonged suppression of ethanol drinking”. Moreover, the “Dose required to double the ED50 of DPDPE, i.c.v.” value in data set [13] (mouse, in vivo) was found to be 300 pmol/kg. Moreover, in [13] (mouse, in vivo, iv), the “Dose required to double the ED50 of DPDPE, i.v.” value is 2.19 µmol/kg and the “penetration into the CNS (in words)” value was “penetrates the CNS more readily than the conjugates”.
